What is called EC50 is the concentration giving half of the maximal effect. A lower EC50 goes with higher potency in that assay.

“Also recorded” adds a separate entry of the source. Bounds are passed on as bounds.

Experiment [1] has as its system A375 cells. The experiment in a line: Annexin V-FITC/PI assay (flow cytometry). The experiment is classed as cell-based, human. The procedure:
Approximately 2 × 10^5 cells (A375) were seeded in cell culture flasks (25 cm^2), and the cells were allowed to grow up for 24 h. After removing of the used medium, the substance loaded fresh medium was reloaded (or a blank fresh medium as a control). After 24 h and 48 h, the cells were harvested, centrifuged (1200 rpm, 4 °C), and washed twice with PBS (w/Ca^2+ and Mg^2+, 1 mL). The cells were counted and approximately 1∙10^6 cells were washed with Annexin V binding buffer (BioLegend®, San Diego, USA) and treated with propidium iodide solution (3 µL, 1 mg/mL) and Annexin V-FITC (5 µL, BioLegend®, San Diego, CA, USA) for 15 min in the dark at room temperature. After adding Annexin V binding buffer (400 µL) the suspension was analyzed using Attune® FACS machine. After gating for living cells, the data from detectors BL-1A and BL-3A were collected (20,000 events) in technical triplicates. The assay was performed in duplicates; cell distribution was calculated using Attune® Software (ThermoFisher Scientific, Braunschweig, Germany).
Background: A flow cytometer gives signals particle by particle.

Experiment [2] concerns non-malignant mouse fibroblasts NIH 3T3. The experiment in a line: SRB cytotoxicity assay, NIH 3T3. It is filed as cell-based. Particulars: NIH3T3, 72 h of treatment. From the text:
(§1) Due to cytotoxicity evaluation, the prepared UA-DOTA conjugates were screened in rhodamine B assays employing a series of human tumor cell lines and non-malignant mouse fibroblasts (NIH 3T3).
(§2) The cell lines used are human cancer cell lines: A2780 (ovarian carcinoma), HT29 (colon adenocarcinoma), MCF-7 (breast adenocarcinoma), A375 (melanoma), FaDu (pharynx squamous cell carcinoma) and non-malignant mouse fibroblasts NIH 3T3; all cell lines were obtained from the Department of Oncology (Martin-Luther-University Halle-Wittenberg). Cultures were maintained as monolayers in RPMI 1640 medium with L-glutamine (Capricorn Scientific GmbH, Ebsdorfergrund, Germany) supplemented with 10% heat inactivated fetal bovine serum (Sigma-Aldrich Chemie GmbH, Steinheim, Germany) and penicillin/streptomycin (Capricorn Scientific GmbH, Ebsdorfergrund, Germany) at 37 °C in a humidified atmosphere with 5% CO2.
(§3) The cytotoxicity of the compounds was evaluated using the sulforhodamine-B (Kiton-Red S, ABCR) micro culture colorimetric assay. Cells were seeded into 96-well plates on day 0 at appropriate cell densities to prevent confluence of the cells during the period of experiment. After 24 h, the cells were treated with six different concentrations (1, 3, 7, 12, 20, and 30 µM) minimum. The final concentration of DMSO/DMF never exceeded 0.5%, which was non-toxic to the cells. After a 72-h treatment, the supernatant medium from the 96-well plates was discarded, the cells were fixed with 10% trichloroacetic acid (TCA) and allowed to rest at 4 °C. After 24 h fixation, the cells were washed in a strip washer and dyed with SRB solution (100 µL, 0.4%, in 1% acetic acid) for about 20 min. After dying, the plates were washed four times with 1% acetic acid to remove the excess of the dye and allowed to air-dry overnight. Tris base solution (200 µL, 10 mM) was added to each well and absorbance was measured at λ = 570 nm using a 96 well plate reader (Tecan Spectra, Crailsheim, Germany). The EC50 values were averaged from three independent experiments performed each in triplicate calculated from semi logarithmic dose response curves applying a non-linear 4P Hills-slope equation (GraphPad Prism5; variables top and bottom were set to 100 and 0, respectively).
In general terms: In SRB staining, fixed cells bind dye roughly in proportion to their protein.

Experiment [3] deals with A375 cells. The experiment in a line: Cell cycle investigations (PI, flow cytometry). It is filed as cell-based, human. On the procedure:
Approximately 2 × 10^5 cells (A375) were seeded in cell culture flasks (25 cm^2), and the cells were allowed to grow up for 24 h. After removing of the used medium, the substance loaded fresh medium was reloaded (or a blank fresh medium as a control). After 24 h or 48 h, respectively, only the adherent cells were harvested, centrifuged (1200 rpm, 4 °C), and washed twice with PBS ((w/w), 1 mL). The cells were counted and approximately 1 × 10^6 cells were fixed with ethanol (70%, 4 °C, 24 h). After centrifugation (4500 rpm, 4 °C) the cells were washed with PBS ((w/w), 1 mL) and centrifuged. The pellet was resuspended in 1 mL RNAse A containing PI buffer (100µL RNAse (100 mg/mL), 15 µL PI solution (1 mg/mL)) and after incubating for 30 min at room temperature in the dark, cells were analyzed using the Attune® FACS machine; collecting data from the BL-2A channel. Doublet cells were excluded from the measurements by plotting BL-2A against BL-2H. For each cell cycle distribution 20,000 events were collected in technical triplicates, each sample was measured in duplicates. Cell cycle distribution was calculated using ModFitLT™ (Verity Software House, Topsham, ME, USA).

The test system of experiment [4] is FaDu (pharynx squamous cell carcinoma). The experiment in a line: SRB cytotoxicity assay, FaDu. The experiment is classed as cell-based, human. Particulars: for EC50: Homo sapiens, FaDu, SRB assay, 72 h of treatment; for Selectivity index SI FaDu: SI = EC50 (NIH 3T3)/EC50 (FaDu).
Source text: as §1, §2, §3

The test system of experiment [5] is MCF-7 (breast adenocarcinoma). The experiment in a line: SRB cytotoxicity assay, MCF-7. The experiment is classed as cell-based, human. The settings on record: for EC50: Homo sapiens, MCF7, SRB assay, 72 h of treatment; for Selectivity index SI MCF-7: SI = EC50 (NIH 3T3)/EC50 (MCF-7).
Source text: as §1, §2, §3

In experiment [6] the test system is A375 cells. The experiment in a line: AO/PI dye exclusion test (fluorescence microscopy). The experiment is classed as cell-based, human. The procedure:
Morphological characteristics of cell death were analyzed employing an AO/PI assay using human cancer cell line A375. Approx. 2 × 10^5 cells were seeded in cell culture flasks (25 cm^2), and the cells were allowed to grow up for 24 h. After removing of the used medium, the substance loaded fresh medium was reloaded (or a blank new medium as a control). After 24 h and 48 h, the content of the flask was collected and centrifuged (1200 rpm, 4 °C), the pellet was gently suspended in phosphate-buffered saline (PBS (w/Ca^2+ and Mg^2+), 1 mL) and centrifuged again. The PBS was removed, and the pellet gently suspended in PBS (150 µL) again. The analysis of the cells was performed using a fluorescence microscope after having mixed the cell suspension (10 µL) with a solution of AO/PI (5 µg/mL, 10 µL).

The test system of a further experiment is A375 (melanoma). The experiment in a line: SRB cytotoxicity assay, A375. It is filed as cell-based, human. The settings on record: for EC50: Homo sapiens, A-375, SRB assay, 72 h of treatment; for Selectivity index SI A375: SI = EC50 (NIH 3T3)/EC50 (A375).
Source text: as §1, §2, §3

For experiment [7], the system named is A2780 (ovarian carcinoma). The experiment in a line: SRB cytotoxicity assay, A2780. The settings on record: for EC50: SRB assay, 72 h of treatment; for Selectivity index SI A2780: SI = EC50 (NIH 3T3)/EC50 (A2780). The experiment is classed as cell-based, human.
Source text: as §1, §2, §3

Experiment [8] concerns HT29 (colon adenocarcinoma). The experiment in a line: SRB cytotoxicity assay, HT29. It is filed as cell-based, human. Particulars: for EC50: Homo sapiens, HT-29, SRB assay, 72 h of treatment; for Selectivity index SI HT29: SI = EC50 (NIH 3T3)/EC50 (HT29).
Source text: as §1, §2, §3

A further experiment has as its system human tumor cell lines. The experiment in a line: SRB cytotoxicity assay, statements over the whole cell line panel. The settings on record: summary over all tumor cell lines. The experiment is classed as cell-based.
Source text: as §1, §2, §3

Regarding `CC(=O)O[C@H]1CC[C@@]2(C)C(CC[C@]3(C)C2CC=C2C4[C@@H](C)[C@H](C)CC[C@]4(C(=O)N4CCN(C(=O)CN5CCN(CC(=O)OC(C)(C)C)CCN(CC(=O)OC(C)(C)C)CCN(CC(=O)OC(C)(C)C)CC5)CC4)CC[C@]23C)C1(C)C` (stereo partly drawn) [compound 22, Tri-tert-butyl 2,2’,2’’-[10-[2-[4-(3β-acetyloxy-urs-12-en-28-oyl)piperazin-1-yl]-2-oxoethyl]-1,4,7,10-tetraazacyclododecane-1,4,7-triyl]triacetate], the “density plots versus control” value in the experiment on A375 cells [1] (A375, 3.0 µM, 24 h) is given as “no significant differences in comparison to the control”. For the same molecule, in the experiment with A375 cells [1] (A375, 3.0 µM, 48 h), the “annexin V-FITC-positive cells” value is 32.9% and the “apoptotic cells (R4)” value is on record as 17.4%. For the same molecule, in the experiment with A375 cells [1] (A375, 3.0 µM, 48 h, control 86.0%), the “vital cells (R3)” value is given as 66.3%. The midpoint of the response in [2], the EC50, lay at 4600 ± 1000 nM. Moreover, in the experiment on A375 cells [3] (A375, 3.0 µM, 48 h), the “cell cycle distribution versus control” value is “G1/G0, G2/M, and S phase were drastically reduced; also recorded: an increased population of cells with reduced DNA content has been observed in the subG1 region”. In addition, in [4], the EC50 worked out at 3700 ± 600 nM and the “Selectivity index SI FaDu” value came to 1.24. In experiment [5], the EC50 stood at 4400 ± 700 nM and the “Selectivity index SI MCF-7” value is listed as 1.05. Further, the “fluorescence microscopic images versus control” value in the experiment with A375 cells [6] (A375, 3.0 µM, 24 h) is “no significant differences in comparison to the control”. Moreover, the “cell morphology in fluorescence microscopic images” value in the experiment with A375 cells [6] (A375, 3.0 µM, 48 h) is “ruptures of the plasma membrane”. Moreover, in the experiment with A375 (melanoma), the EC50 came out at 1500 ± 400 nM and the “Selectivity index SI A375” value is reported as 3.07. A half-maximal response in [7] (Homo sapiens, A2780, 72 h) (EC50) required 1700 nM. Also, in [7], the “Selectivity index SI A2780” value was found to be 2.42 and the EC50 is 1900 ± 300 nM. Further, in experiment [8], it took 5700 ± 500 nM to reach a half-maximal effect (EC50) and the “Selectivity index SI HT29” value is recorded as 0.81.

`CC(=O)O[C@H]1CC[C@@]2(C)C(CC[C@]3(C)C2CC=C2C4[C@@H](C)[C@H](C)CC[C@]4(C(=O)NCCNC(=O)CN4CCN(CC(=O)OC(C)(C)C)CCN(CC(=O)OC(C)(C)C)CCN(CC(=O)OC(C)(C)C)CC4)CC[C@]23C)C1(C)C` (stereo partly drawn) [compound 24, Tri-tert-butyl 2,2’,2’’-[10-[2-[2-(3β-acetyloxy-urs-12-en-28-oylamino)ethyl]amino-2-oxoethyl]-1,4,7,10-tetraazacyclododecane-1,4,7-triyl]triacetate]: the “annexin V-FITC-positive cells” value with A375 cells [1] (A375, 4.0 µM, 24 h) was found to be 63%. For the same molecule, in the experiment on A375 cells [1] (A375, 4.0 µM, 24 h), the “apoptotic cells (R4)” value amounted to 51.9%. Also, the “vital cells (R3)” value in the experiment on A375 cells [1] (A375, 4.0 µM, 24 h, control 86.1%) amounted to 36.7%. Moreover, the EC50 in experiment [2] is 1400 ± 100 nM; in experiment [4] it was 2000 ± 200 nM; in [5], 1800 ± 100 nM; with human tumor cell lines, below 2500 nM; with A375 (melanoma), 2000 ± 100 nM; in experiment [7] (Homo sapiens, A2780, 72 h), 1700 ± 100 nM. For the same molecule, the concentration giving a half-maximal response (EC50) in experiment [8] is 2300 ± 300 nM. Also, the “cell cycle distribution versus control” value in the experiment on A375 cells [3] (A375, 4.0 µM, 24 h) is “decreased number of cells in G1/G0, G2/M, as well as in S phase; also recorded: a large population of cells has been shifted into the subG1 region”. Further, in experiment [4], the “Selectivity index SI FaDu” value came out at 0.70. Moreover, the “Selectivity index SI MCF-7” value in experiment [5] is on record as 0.78. Further, the “cell morphology in fluorescence microscopic images” value in the experiment on A375 cells [6] (A375, 4.0 µM, 24 h) was “vital cells (green staining) with some of them having ruptured cell membranes”. For the same molecule, the “Selectivity index SI A375” value with A375 (melanoma) was determined as 0.70. Further, the “Selectivity index SI A2780” value in [7] amounted to 0.82. Also, the “Selectivity index SI HT29” value in experiment [8] was 0.61.

(Values after PMC6630699, “Synthesis and Cytotoxicity Evaluation of DOTA-Conjugates of Ursolic Acid” (Molecules, 2019).)
